Laboratory results: article PMC3901432 (Bioorganic & medicinal chemistry letters, 2013)

Legend:
mGlu2 = mGlu2 (Homo sapiens, UniProt Q14416); experiment: mGlu selectivity cell based functional assay; conditions: tested at 10 μM
mGlu3 = mGlu3 (Homo sapiens, UniProt Q14832); experiment: mGlu selectivity cell based functional assay; conditions: tested at 10 μM
mGlu6 = mGlu6 (Homo sapiens, UniProt O15303); experiment: mGlu selectivity cell based functional assay; conditions: tested at 10 μM
mGlu7 = mGlu7 (Homo sapiens, UniProt Q14831); experiment: mGlu selectivity cell based functional assay; conditions: tested at 10 μM
mGlu4 = mGlu4 (Homo sapiens, UniProt Q14833); experiment: mGlu selectivity cell based functional assay; conditions: tested at 10 μM
Chain of mGlu4 (Q14833 33-912): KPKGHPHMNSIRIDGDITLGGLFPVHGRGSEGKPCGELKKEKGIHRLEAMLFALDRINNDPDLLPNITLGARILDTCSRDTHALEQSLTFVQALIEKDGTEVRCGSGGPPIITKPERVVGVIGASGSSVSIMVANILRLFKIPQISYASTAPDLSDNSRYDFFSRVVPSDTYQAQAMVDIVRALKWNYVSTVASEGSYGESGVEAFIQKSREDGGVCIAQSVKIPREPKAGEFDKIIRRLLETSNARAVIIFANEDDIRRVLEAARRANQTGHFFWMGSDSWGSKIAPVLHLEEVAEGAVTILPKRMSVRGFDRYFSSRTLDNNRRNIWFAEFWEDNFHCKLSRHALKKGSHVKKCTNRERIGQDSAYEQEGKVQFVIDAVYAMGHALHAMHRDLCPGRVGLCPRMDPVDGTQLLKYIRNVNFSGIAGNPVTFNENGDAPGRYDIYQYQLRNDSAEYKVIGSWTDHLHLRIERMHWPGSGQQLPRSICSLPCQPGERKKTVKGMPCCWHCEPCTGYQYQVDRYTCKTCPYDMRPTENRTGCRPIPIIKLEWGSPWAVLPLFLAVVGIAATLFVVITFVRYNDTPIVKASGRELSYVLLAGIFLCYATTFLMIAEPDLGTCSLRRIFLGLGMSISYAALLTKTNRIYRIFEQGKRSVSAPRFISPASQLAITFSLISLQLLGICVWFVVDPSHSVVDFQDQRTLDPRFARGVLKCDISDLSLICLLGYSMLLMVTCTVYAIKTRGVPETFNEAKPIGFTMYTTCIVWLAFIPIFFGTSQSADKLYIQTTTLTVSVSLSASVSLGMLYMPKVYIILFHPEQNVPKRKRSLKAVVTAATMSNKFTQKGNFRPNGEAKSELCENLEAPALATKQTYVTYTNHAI

CYP3A4 = CYP3A4 (Homo sapiens, UniProt P08684); experiment: Cytochrome P450 inhibition assay in pooled human liver microsomes; assay type: in vitro ADME
Chain of CYP3A4 (P08684 whole entry): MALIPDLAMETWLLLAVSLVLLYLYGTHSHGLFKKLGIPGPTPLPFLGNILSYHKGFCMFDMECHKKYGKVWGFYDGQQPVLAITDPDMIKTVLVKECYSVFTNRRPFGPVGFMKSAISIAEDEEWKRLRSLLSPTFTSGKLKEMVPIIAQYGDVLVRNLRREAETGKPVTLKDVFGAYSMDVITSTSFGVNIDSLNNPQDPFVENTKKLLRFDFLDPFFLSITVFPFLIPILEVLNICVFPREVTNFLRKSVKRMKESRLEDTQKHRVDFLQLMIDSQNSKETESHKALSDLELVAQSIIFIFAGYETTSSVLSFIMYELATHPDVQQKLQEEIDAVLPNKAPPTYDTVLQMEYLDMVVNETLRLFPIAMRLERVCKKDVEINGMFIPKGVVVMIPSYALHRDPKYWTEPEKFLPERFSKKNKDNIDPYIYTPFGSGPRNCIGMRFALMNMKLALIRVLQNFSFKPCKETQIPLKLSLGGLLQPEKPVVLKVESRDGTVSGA

human mGlu1 = human mGlu1 (Homo sapiens, UniProt Q13255); experiment: Calcium mobilization mGlu1 assay; assay type: cell-based; conditions: for LLE: ligand-lipophilicity efficiency = pIC50−cLogP; for mGlu1 antagonism (in words): up to the top concentration of 30 μM
Chain of human mGlu1 (Q13255 19-1194): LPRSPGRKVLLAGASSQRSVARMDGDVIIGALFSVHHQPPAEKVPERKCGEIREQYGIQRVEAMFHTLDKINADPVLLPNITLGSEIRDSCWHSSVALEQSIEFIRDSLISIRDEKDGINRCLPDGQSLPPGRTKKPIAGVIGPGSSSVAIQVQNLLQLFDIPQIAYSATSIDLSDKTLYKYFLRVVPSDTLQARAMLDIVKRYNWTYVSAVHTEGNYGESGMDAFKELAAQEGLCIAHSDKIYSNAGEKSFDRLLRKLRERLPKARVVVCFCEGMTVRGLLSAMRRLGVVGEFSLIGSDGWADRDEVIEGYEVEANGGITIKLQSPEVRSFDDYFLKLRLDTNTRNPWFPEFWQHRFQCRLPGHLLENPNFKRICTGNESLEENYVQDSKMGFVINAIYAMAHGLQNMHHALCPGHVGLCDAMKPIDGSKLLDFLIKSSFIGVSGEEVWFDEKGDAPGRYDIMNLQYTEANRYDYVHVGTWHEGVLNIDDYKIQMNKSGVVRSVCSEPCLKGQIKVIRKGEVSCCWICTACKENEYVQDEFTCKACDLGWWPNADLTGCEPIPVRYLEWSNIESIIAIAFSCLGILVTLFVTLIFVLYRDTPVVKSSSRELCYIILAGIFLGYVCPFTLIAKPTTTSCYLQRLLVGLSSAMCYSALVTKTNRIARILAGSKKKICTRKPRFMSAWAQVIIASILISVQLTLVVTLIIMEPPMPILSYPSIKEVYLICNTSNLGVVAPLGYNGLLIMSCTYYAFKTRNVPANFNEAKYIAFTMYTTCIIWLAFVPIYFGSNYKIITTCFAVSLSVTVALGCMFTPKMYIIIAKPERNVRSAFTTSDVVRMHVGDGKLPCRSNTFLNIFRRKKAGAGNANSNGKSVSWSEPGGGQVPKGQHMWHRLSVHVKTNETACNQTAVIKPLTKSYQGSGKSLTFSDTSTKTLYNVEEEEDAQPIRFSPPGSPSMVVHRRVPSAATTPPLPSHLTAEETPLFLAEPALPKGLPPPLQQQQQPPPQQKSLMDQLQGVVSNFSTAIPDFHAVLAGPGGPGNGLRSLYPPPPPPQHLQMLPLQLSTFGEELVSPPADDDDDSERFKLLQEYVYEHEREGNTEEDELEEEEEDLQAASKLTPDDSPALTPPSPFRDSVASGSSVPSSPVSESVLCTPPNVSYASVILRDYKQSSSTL

mGlu8 = mGlu8 (Homo sapiens, UniProt O00222); experiment: mGlu selectivity cell based functional assay; conditions: tested at 10 μM
Chain of mGlu8 (O00222 34-908): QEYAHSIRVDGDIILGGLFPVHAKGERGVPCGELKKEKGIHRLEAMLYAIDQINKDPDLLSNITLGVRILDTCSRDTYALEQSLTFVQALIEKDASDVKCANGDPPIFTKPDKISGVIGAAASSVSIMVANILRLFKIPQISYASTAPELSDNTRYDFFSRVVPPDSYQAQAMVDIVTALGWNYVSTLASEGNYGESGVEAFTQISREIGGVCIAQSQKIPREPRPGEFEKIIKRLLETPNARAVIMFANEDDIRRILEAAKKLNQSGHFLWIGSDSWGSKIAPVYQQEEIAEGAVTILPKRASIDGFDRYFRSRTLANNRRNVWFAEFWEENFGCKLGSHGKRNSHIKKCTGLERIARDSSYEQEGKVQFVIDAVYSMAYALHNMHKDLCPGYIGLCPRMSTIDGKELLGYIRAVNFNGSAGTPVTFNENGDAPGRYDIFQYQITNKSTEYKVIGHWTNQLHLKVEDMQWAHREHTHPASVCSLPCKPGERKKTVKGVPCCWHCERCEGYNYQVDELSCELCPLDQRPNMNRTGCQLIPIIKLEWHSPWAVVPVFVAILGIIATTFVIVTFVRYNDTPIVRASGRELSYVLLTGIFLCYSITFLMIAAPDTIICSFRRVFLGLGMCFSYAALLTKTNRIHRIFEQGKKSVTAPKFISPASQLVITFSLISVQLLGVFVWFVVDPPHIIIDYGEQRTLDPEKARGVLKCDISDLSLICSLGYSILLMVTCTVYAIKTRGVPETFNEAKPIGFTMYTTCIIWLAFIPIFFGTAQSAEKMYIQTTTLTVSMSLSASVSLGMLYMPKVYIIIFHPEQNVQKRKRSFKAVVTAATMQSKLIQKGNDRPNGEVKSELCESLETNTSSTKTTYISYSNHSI

Chain of mGlu3 (Q14832 23-879): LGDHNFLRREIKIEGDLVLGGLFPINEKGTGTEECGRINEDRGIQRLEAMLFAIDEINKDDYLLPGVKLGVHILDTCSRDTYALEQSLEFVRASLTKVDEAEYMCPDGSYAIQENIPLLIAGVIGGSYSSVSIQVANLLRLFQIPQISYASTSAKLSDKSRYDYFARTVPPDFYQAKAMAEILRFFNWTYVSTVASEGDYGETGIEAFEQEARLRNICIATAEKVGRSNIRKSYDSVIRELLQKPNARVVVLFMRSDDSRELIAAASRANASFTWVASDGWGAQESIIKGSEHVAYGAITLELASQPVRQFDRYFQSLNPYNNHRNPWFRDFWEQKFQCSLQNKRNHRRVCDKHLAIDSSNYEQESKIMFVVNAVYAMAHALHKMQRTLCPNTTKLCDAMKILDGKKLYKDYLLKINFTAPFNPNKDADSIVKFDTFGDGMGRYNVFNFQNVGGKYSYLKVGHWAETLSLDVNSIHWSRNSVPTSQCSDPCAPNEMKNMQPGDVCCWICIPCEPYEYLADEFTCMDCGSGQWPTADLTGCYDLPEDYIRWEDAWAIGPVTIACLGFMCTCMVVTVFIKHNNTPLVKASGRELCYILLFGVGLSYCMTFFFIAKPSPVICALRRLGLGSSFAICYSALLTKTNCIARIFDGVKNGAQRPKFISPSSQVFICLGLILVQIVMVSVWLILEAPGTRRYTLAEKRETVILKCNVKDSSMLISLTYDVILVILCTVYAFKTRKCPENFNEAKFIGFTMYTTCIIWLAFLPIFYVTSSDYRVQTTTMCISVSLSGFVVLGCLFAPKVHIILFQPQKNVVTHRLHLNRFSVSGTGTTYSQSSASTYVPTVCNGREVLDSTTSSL

SMILES | LLE (human mGlu1) | mGlu1 antagonism (in words) (human mGlu1) | mGlu1 potency relative to 8 (fold less potent) (human mGlu1) | further results
O=C(N1C[C@@H]2CN(c3ccccn3)C[C@@H]2C1)C12CC3CC(CC(C3)C1)C2 [Compound 8] | 2.79 | – | – | activity at mGlu2 (mGlu2): no activity; activity at mGlu3 (mGlu3): no activity; activity at mGlu6 (mGlu6): very weak and marginal activity; activity at mGlu7 (mGlu7): very weak and marginal activity; activity at mGlu4 (mGlu4): no activity; CYP3A4 inhibition (in words) (CYP3A4): moderate inhibitors; human mGlu1 potency relative to 1 (fold more potent) (human mGlu1): greater than seven fold; activity at mGlu8 (mGlu8): very weak and marginal activity
CC(C)(C)C(=O)N1C[C@@H]2CN(c3ccccn3)C[C@@H]2C1 [Compound 9] | – | inactive | – | –
CC1(C(=O)N2C[C@@H]3CN(c4ccccn4)C[C@@H]3C2)CCCCC1 [Compound 14] | – | – | sixty | –
CC(C)(C)CC(=O)N1C[C@@H]2CN(c3ccccn3)C[C@@H]2C1 [Compound 16] | – | inactive | – | –
O=C(N1C[C@@H]2CN(c3nccs3)C[C@@H]2C1)C12CC3CC(CC(C3)C1)C2 [Compound 23] | – | only weak antagonists | – | –
O=C(N1C[C@@H]2CN(c3ncccn3)C[C@@H]2C1)C12CC3CC(CC(C3)C1)C2 [Compound 24] | – | only weak antagonists | – | –
O=C(N1C[C@@H]2CN(c3ccncn3)C[C@@H]2C1)C12CC3CC(CC(C3)C1)C2 [Compound 25] | – | only weak antagonists | – | –
O=C(N1C[C@@H]2CN(c3cnccn3)C[C@@H]2C1)C12CC3CC(CC(C3)C1)C2 [Compound 26] | 1.21 | – | eight fold | –
O=C(N1C[C@@H]2CN(c3cccc(F)n3)C[C@@H]2C1)C12CC3CC(CC(C3)C1)C2 [Compound 27] | 2.50 | – | equipotent | –
O=C(N1C[C@@H]2CN(c3ccc(F)cn3)C[C@@H]2C1)C12CC3CC(CC(C3)C1)C2 [Compound 28] | 1.88 | – | six fold | –
O=C(N1C[C@@H]2CN(c3ncccc3F)C[C@@H]2C1)C12CC3CC(CC(C3)C1)C2 [Compound 29] | – | – | 12 fold | –
N#Cc1ccccc1N1C[C@H]2CN(C(=O)C34CC5CC(CC(C5)C3)C4)C[C@H]2C1 [Compound 30] | 2.18 | – | – | –
N#Cc1ccncc1N1C[C@H]2CN(C(=O)C34CC5CC(CC(C5)C3)C4)C[C@H]2C1 [Compound 32] | – | moderate potency | – | –
N#Cc1ncccc1N1C[C@H]2CN(C(=O)C34CC5CC(CC(C5)C3)C4)C[C@H]2C1 [Compound 34] | 2.87 | moderate potency | – | –
O=C(N1C[C@@H]2CN(c3ccccn3)C[C@@H]2C1)N1CCC2(CCCC2)C1 [Compound 38] | 4.12 | – | three fold | activity at mGlu2 (mGlu2): no activity; activity at mGlu3 (mGlu3): no activity; activity at mGlu6 (mGlu6): very weak and marginally significant activity; activity at mGlu7 (mGlu7): no activity; activity at mGlu4 (mGlu4): no activity; activity at mGlu8 (mGlu8): very weak and marginally significant activity
O=C(N1CCC2(CCCCC2)CC1)N1C[C@@H]2CN(c3ccccn3)C[C@@H]2C1 [Compound 40] | 2.71 | – | – | –
C[C@@H]1CN(c2cccnc2C#N)CCN1C(=O)C12CC3CC(CC(C3)C1)C2 [VU0469650, reference compound] | – | – | – | CYP3A4 inhibition (in words) (CYP3A4): moderate inhibitors
